Where two headings read alike, the source gives them in different places.
How the values were obtained:
P. aeruginosa AUMC-Pa-3 = experiment: microbe, parasite or virus in culture; details: strain AUMC-Pa-3
Method in brief: (§1)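 MICs were determined by CLSI broth microdilution in MHB, in triplicate: two-fold drug dilutions were mixed 1:1 with bacterial suspension of ~1 × 10^6 CFU/mL and incubated 18 h at 37 °C. The MIC was the lowest concentration with no visible growth.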

P. aeruginosa AUMC-Pa-4 = experiment: microbe, parasite or virus in culture; details: strain AUMC-Pa-4
Method in brief: as §1

P. aeruginosa AUMC-Pa-5 = experiment: microbe, parasite or virus in culture; details: strain AUMC-Pa-5
Method in brief: as §1

P. aeruginosa AUMC-Pa-6 = experiment: microbe, parasite or virus in culture; details: strain AUMC-Pa-6
Method in brief: as §1

P. aeruginosa PAO1 = experiment: microbe, parasite or virus in culture; details: S3 Table, PAO1
Method in brief: as §1

P. aeruginosa ATCC27853 = experiment: microbe, parasite or virus in culture; design: MICa: MIC of the antibiotic / MICac: MIC of the antibiotic in the combination: unit not given beside the values; details: strain ATCC27853
Experimental: (§2) The MIC tests were performed in triplicate using broth microdilution in accordance with Clinical and Laboratory Standards Institute (CLSI) recommendations (http://iacld.ir/DL/public/CLSI-2018-M100-S28.pdf). Briefly, drugs were two-fold diluted in MHB and mixed with an equal volume of bacterial suspensions containing approximately 1 × 10^6 CFU/mL in 96-well microliter plate. After 18 h incubation at 37 °C, the MIC values were defined as the lowest concentrations of antibiotics with no visible growth of bacteria. […] Otherwise, 1/4 MIC of the peptide was used in the combination. […] If needed, membrane compounds PG, PE, PC, CL or LPS, or membrane stabilizers MgCl2 or CaCl2, or efflux pumps inhibitor PAβN were added to the broth medium to clarify the effect of other substances on the synergy between peptide and antibiotics. All the tests were performed in triplicate.
(§3) The fractional inhibitory concentration (FIC) indices were calculated using the previously described formula FICI = FICa + FICb = MICac/MICa + MICbc/MICb. The FICI was interpreted according to EUCAST [65] as follows: synergistic, FICI≤0.5; additive, 0.5<FICI≤1; indifferent, 1<FICI<2; antagonistic, FICI ≥2. For the FICI calculations, twice the highest concentration tested was used in the cases where the MIC was not reached.

P. aeruginosa NR-31040 = experiment: microbe, parasite or virus in culture; design: MICa: MIC of the antibiotic / MICac: MIC of the antibiotic in the combination: unit not given beside the values; details: strain NR-31040
Experimental: as §2, §3

P. aeruginosa NR-31041 = experiment: microbe, parasite or virus in culture; design: MICa: MIC of the antibiotic / MICac: MIC of the antibiotic in the combination: unit not given beside the values; details: strain NR-31041
Experimental: as §2, §3

P. aeruginosa PA14 = experiment: microbe, parasite or virus in culture; design: MICa: MIC of the antibiotic / MICac: MIC of the antibiotic in the combination: unit not given beside the values; details: strain PA14
Experimental: as §2, §3

P. aeruginosa PAK = experiment: microbe, parasite or virus in culture; design: MICa: MIC of the antibiotic / MICac: MIC of the antibiotic in the combination: unit not given beside the values; details: strain PAK
Experimental: as §2, §3

P. aeruginosa HM-214 = details: strain HM-214; antibiotic + D-11 (MICb/MICbc 128/4)
Experimental: as §2, §3

P. aeruginosa AUMC-Pa-1 = details: strain AUMC-Pa-1; antibiotic + D-11 (MICb/MICbc 128/4)
Experimental: as §2, §3

P. aeruginosa AUMC-Pa-2 = details: strain AUMC-Pa-2; antibiotic + D-11 (MICb/MICbc 64/4)
Experimental: as §2, §3

[1] = test system: clinical P. aeruginosa isolates; experiment: microbe, parasite or virus in culture; details: Pseudomonas aeruginosa, 18 h, antibiotic alone
Method in brief: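 Broth microdilution per CLSI in MHB, two-fold drug dilutions mixed with an equal volume of bacteria at about 1 × 10^6 CFU/mL. After 18 h at 37 °C, MIC taken as the lowest concentration with no visible growth; run in triplicate.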

[2] = antibiotic + D-11 (MICb/MICbc 128/4)
[3] = antibiotic alone, unit not given
[4] = with D-11 at MICbc 4, unit not given
[5] = antibiotic + D-11 (MICb/MICbc 64/4)

CC1(C)S[C@@H]2[C@H](NC(=O)C(C(=O)O)c3ccccc3)C(=O)N2[C@H]1C(=O)O (some centres unmarked) [Carbenicillin]
FICI (P. aeruginosa AUMC-Pa-3; [2]): 0.281 | MICa: MIC of the antibiotic (P. aeruginosa AUMC-Pa-3; [3]): 128 | MICac: MIC of the antibiotic in the combination (P. aeruginosa AUMC-Pa-3; [4]): 32 | FICI (P. aeruginosa AUMC-Pa-4; [2]): 0.531 | MICa: MIC of the antibiotic (P. aeruginosa AUMC-Pa-4; [3]): 128 | MICac: MIC of the antibiotic in the combination (P. aeruginosa AUMC-Pa-4; [4]): 64 | FICI (P. aeruginosa AUMC-Pa-5; [5]): 1.063 | MICa: MIC of the antibiotic (P. aeruginosa AUMC-Pa-5; [3]): 128/128 | MICac: MIC of the antibiotic in the combination (P. aeruginosa AUMC-Pa-5; [4]): 128/128 | FICI (P. aeruginosa AUMC-Pa-6; [5]): 1.063 | MICa: MIC of the antibiotic (P. aeruginosa AUMC-Pa-6; [3]): 128/128 | MICac: MIC of the antibiotic in the combination (P. aeruginosa AUMC-Pa-6; [4]): 128/128 | FICI (P. aeruginosa PAO1; antibiotic + 2 μM D-11): 0.313 | FICI (P. aeruginosa PAO1; antibiotic + 4 μM D-11): 0.188 | MICac: the MIC for the antibiotic in the combination (P. aeruginosa PAO1; with 2 μM D-11): 16 µM | MICac: the MIC for the antibiotic in the combination (P. aeruginosa PAO1; with 4 μM D-11): 4 µM | MICa: the MIC of antibiotics (P. aeruginosa PAO1; antibiotic alone): 64 µM | FICI (P. aeruginosa ATCC27853; antibiotic + D-11 (MICb/MICbc 32/4)): 0.375 | MICa: MIC of the antibiotic (P. aeruginosa ATCC27853; [3]): 128 | MICac: MIC of the antibiotic in the combination (P. aeruginosa ATCC27853; [4]): 32 | FICI (P. aeruginosa NR-31040; [2]): 1.031 | MICa: MIC of the antibiotic (P. aeruginosa NR-31040; [3]): 64/64 | MICac: MIC of the antibiotic in the combination (P. aeruginosa NR-31040; [4]): 64/64 | FICI (P. aeruginosa NR-31041; [5]): 1.063 | MICa: MIC of the antibiotic (P. aeruginosa NR-31041; [3]): 128/128 | MICac: MIC of the antibiotic in the combination (P. aeruginosa NR-31041; [4]): 128/128 | FICI (P. aeruginosa PA14; [2]): 1.031 | MICa: MIC of the antibiotic (P. aeruginosa PA14; [3]): 128/128 | MICac: MIC of the antibiotic in the combination (P. aeruginosa PA14; [4]): 128/128 | FICI (P. aeruginosa PAK; [5]): 0.563 | MICa: MIC of the antibiotic (P. aeruginosa PAK; [3]): 128 | MICac: MIC of the antibiotic in the combination (P. aeruginosa PAK; [4]): 64 | FICI (P. aeruginosa HM-214): 1.031 | FICI (P. aeruginosa AUMC-Pa-1): 0.531 | FICI (P. aeruginosa AUMC-Pa-2): 1.063 | MIC ([1]; read-out: Antibiotic sensibility (MIC) of clinical P. aeruginosa isolate AUMC-Pa-1, strain AUMC-Pa-1): > 128 µM | MIC ([1]; read-out: Antibiotic sensibility (MIC) of clinical P. aeruginosa isolate AUMC-Pa-2, strain AUMC-Pa-2): 64 µM | MIC ([1]; read-out: Antibiotic sensibility (MIC) of clinical P. aeruginosa isolate AUMC-Pa-3, strain AUMC-Pa-3): 128 µM | MIC ([1]; read-out: Antibiotic sensibility (MIC) of clinical P. aeruginosa isolate AUMC-Pa-4, strain AUMC-Pa-4): 128 µM | MIC ([1]; read-out: Antibiotic sensibility (MIC) of clinical P. aeruginosa isolate AUMC-Pa-5, strain AUMC-Pa-5): 128 µM | MIC ([1]; read-out: Antibiotic sensibility (MIC) of clinical P. aeruginosa isolate AUMC-Pa-6, strain AUMC-Pa-6): 128 µM | MIC ([1]; read-out: Antibiotic sensibility (MIC) of clinical P. aeruginosa isolate HM-214, strain HM-214): 128 µM | MIC ([1]; read-out: Antibiotic sensibility (MIC) of clinical P. aeruginosa isolate NR-31040, strain NR-31040): 64 µM | MIC ([1]; read-out: Antibiotic sensibility (MIC) of clinical P. aeruginosa isolate NR-31041, strain NR-31041): 128 µM

Reference: publication PMC8445441, “Elucidating the mechanism by which synthetic helper peptides sensitize Pseudomonas aeruginosa to multiple antibiotics” (PLoS Pathogens, 2021)
